Measured values from ChEMBL document CHEMBL5370579, “Structure-based lead optimization to improve potency and selectivity of a novel tetrahydroimidazo[1,2-a]pyridine-5-carboxylic acid series of heparanase-1 inhibitor” (Bioorg Med Chem, 2023).
One block for each compound: values may come before it. Calls of active or inactive are those of the source. No cut-off for these calls is given here.

Legend:
Heparanase = biological target: T1, Heparanase (Homo sapiens, UniProt Q9Y251); experiment: Inhibition of recombinant human HPSE1 using biotinylated heparan sulfate-Eu cryptate as substrate pre-incubated for 10 mins followed by substrate addition and measured after 60 mins by fluorescence based HTRF assay
T1 sequence (Q9Y251 whole entry): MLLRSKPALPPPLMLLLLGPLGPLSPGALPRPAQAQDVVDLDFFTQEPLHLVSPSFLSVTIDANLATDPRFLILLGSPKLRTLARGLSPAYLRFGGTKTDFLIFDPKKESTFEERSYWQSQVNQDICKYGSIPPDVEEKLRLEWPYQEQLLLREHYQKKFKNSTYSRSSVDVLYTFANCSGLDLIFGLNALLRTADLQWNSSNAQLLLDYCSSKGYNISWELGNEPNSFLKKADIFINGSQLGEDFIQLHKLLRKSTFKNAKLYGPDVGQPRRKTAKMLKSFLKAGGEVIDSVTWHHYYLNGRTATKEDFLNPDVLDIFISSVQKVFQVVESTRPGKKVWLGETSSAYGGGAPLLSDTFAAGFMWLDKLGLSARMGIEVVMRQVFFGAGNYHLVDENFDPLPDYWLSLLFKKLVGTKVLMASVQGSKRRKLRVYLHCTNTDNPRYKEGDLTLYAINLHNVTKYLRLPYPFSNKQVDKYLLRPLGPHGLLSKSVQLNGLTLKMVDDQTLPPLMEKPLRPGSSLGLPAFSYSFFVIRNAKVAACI

[1] = Inhibition of recombinant human GBA using 4-MUBDG as substrate pre-incubated for 10 mins followed by substrate addition and measured after 24 hrs by fluorescence based assay
Beta-glucuronidase = biological target: T2, Beta-glucuronidase (Homo sapiens, UniProt P08236); experiment: Inhibition of recombinant human GUSbeta using 4-MUG as substrate pre-incubated for 10 mins followed by substrate addition and measured after 60 mins by fluorescence based assay
T2 sequence (P08236 whole entry): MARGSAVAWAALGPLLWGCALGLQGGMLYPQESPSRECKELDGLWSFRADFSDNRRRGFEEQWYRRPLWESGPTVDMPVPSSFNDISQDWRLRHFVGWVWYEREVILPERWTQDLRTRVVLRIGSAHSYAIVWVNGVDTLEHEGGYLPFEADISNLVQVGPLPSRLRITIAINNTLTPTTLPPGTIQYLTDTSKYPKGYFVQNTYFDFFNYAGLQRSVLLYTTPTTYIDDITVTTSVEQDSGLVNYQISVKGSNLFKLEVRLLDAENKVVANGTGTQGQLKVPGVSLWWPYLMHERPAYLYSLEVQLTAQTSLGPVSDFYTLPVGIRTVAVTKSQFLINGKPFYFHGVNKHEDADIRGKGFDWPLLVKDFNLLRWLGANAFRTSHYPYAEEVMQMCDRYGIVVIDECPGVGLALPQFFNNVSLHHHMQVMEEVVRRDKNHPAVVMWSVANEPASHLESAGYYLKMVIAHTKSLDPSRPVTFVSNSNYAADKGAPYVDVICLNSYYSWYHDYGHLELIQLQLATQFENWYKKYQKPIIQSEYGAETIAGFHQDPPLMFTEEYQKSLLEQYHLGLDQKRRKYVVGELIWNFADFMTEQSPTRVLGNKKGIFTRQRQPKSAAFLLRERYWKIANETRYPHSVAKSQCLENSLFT

[2] = Drug excretion in C57BL/6J mouse urine at 0.5 mg/kg, iv measured after 24 hrs by LC-MS/MS analysis; type: ADME, organism-based; conditions: read-out: Drug excretion
[3] = Half life in C57BL/6J mouse at 0.5 mg/kg, iv measured after 0.083 to 24 hrs by LC-MS/MS analysis; type: ADME, organism-based; conditions: in vivo, time 0.083-24 hrs
[4] = Volume of distribution at steady state in C57BL/6J mouse at 0.5 mg/kg, iv measured after 0.083 to 24 hrs by LC-MS/MS analysis; type: ADME, organism-based; conditions: in vivo, time 0.083-24 hrs, read-out: Vdss
[5] = Total clearance in C57BL/6J mouse at 0.5 mg/kg, iv measured after 0.083 to 24 hrs by LC-MS/MS analysis; type: ADME, organism-based; conditions: in vivo, time 0.083-24 hrs
[6] = Protein binding in C57BL/6J mouse serum at 1 ug/ml measured after 4 hrs by LC-MS/MS analysis; type: ADME, cell-free; conditions: at 1 µg/mL, read-out: PB (converted)
[7] = Inhibition of bovine liver beta-glucuronidase; type: tissue-based, Bos taurus
[8] = Drug concentration in C57BL/6J mouse plasma at 3 mg/kg, sc measured after 4 hrs by LC-MS/MS analysis; type: ADME, organism-based
[9] = Drug concentration in C57BL/6J mouse plasma at 30 mg/kg, sc measured after 4 hrs by LC-MS/MS analysis; type: ADME, organism-based
[10] = Drug concentration in C57BL/6J mouse plasma at 30 mg/kg, sc measured after 1 hrs by LC-MS/MS analysis; type: ADME, organism-based
[11] = Drug concentration in C57BL/6J mouse plasma at 100 mg/kg, sc measured after 1 hrs by LC-MS/MS analysis; type: ADME, organism-based
Mus musculus = experiment: In vivo inhibition of HPSE1 in C57BL/6J mouse at 3 to 100 mg/kg, sc measured after 1 to 4 hrs; type: functional, organism-based; conditions: dose 3-100 mg/kg, time 1-4 hrs
[12] = Drug concentration in C57BL/6J mouse plasma at 100 mg/kg, sc measured after 4 hrs by LC-MS/MS analysis; type: ADME, organism-based
[13] = Drug concentration in C57BL/6J mouse plasma at 3 mg/kg, sc measured after 1 hrs by LC-MS/MS analysis; type: ADME, organism-based

Compound: O=C(O)[C@@H]1[C@@H](O)[C@H](O)[C@@H](O)c2nc(C3CCN(C(=O)c4ccccc4Oc4ccccc4)CC3)cn21
IC50 (Heparanase): 1750 nM

Compound: COc1c(CCc2cn3c(n2)[C@H](O)[C@@H](O)[C@H](O)[C@H]3C(=O)O)cccc1Oc1ccccc1
IC50 (Heparanase): 1600 nM

Compound: O=C(O)[C@@H]1[C@@H](O)[C@H](O)[C@@H](O)c2nccn21
Ki [7]: 12 nM

Compound: O=C(O)[C@@H]1[C@@H](O)[C@H](O)[C@@H](O)c2nc(CCc3ccc(CCc4ccccc4)cc3)cn21
IC50 (Heparanase): 2000 nM

Compound: COc1cccc(OC)c1Oc1cccc(CCc2cn3c(n2)[C@H](O)[C@@H](O)[C@H](O)[C@H]3C(=O)O)c1OC
IC50 (Heparanase): 9950 nM

Compound: CC(C)c1ccc(Oc2cccc(CCc3cn4c(n3)[C@H](O)[C@@H](O)[C@H](O)[C@H]4C(=O)O)c2)cc1
IC50 (Heparanase): 1380 nM

Now from value to compound, other results behind:

IC50 (Heparanase): 748 nM
Compound: O=C(O)[C@@H]1[C@@H](O)[C@H](O)[C@@H](O)c2nc(CCc3ccc(S(=O)(=O)c4ccccc4)cc3)cn21

IC50 (Heparanase): 1100 nM
Compound: O=C(O)[C@@H]1[C@@H](O)[C@H](O)[C@@H](O)c2nc(-c3ccc(Oc4ccccc4)cc3)cn21

IC50 [1]: 53 nM
IC50 (Beta-glucuronidase): 8 nM
dose excreted at 24 h [2]: 44.2%
half-life [3]: 1.6 h
IC50 (Heparanase): 467 nM
Vd [4]: 0.439 L/kg
clearance [5]: 8.18 mL/min/kg
fraction unbound at 4 h, 1 ug/ml [6]: 0.036
Compound: O=C(O)[C@@H]1[C@@H](O)[C@H](O)[C@@H](O)c2nc(CCc3cccc(Oc4ccccc4)c3)cn21

IC50 [1]: 439 nM
IC50 (Beta-glucuronidase): 839 nM
dose excreted at 24 h [2]: 31.1%
concentration at 4 h [8]: 191 ng/mL
concentration at 4 h [9]: 1070 ng/mL
half-life [3]: 2.1 h
IC50 (Heparanase): 442 nM
concentration at 1 h [10]: 9820 ng/mL
concentration at 1 h [11]: 24200 ng/mL
Vd [4]: 0.666 L/kg
clearance [5]: 5.83 mL/min/kg
fraction unbound at 4 h, 1 ug/ml [6]: 0.045
concentration at 4 h [12]: 1880 ng/mL
concentration at 1 h [13]: 1240 ng/mL
Compound: CO[C@H]1[C@H](O)[C@@H](O)c2nc(CCc3cccc(Oc4ccccc4)c3)cn2[C@@H]1C(=O)O
inhibition (Mus musculus): Active

IC50 (Heparanase): 1340 nM
Compound: Cc1ccc(S(=O)(=O)Nc2ccc(CCc3cn4c(n3)[C@H](O)[C@@H](O)[C@H](O)[C@H]4C(=O)O)cc2)cc1

IC50 (Heparanase): 586 nM
Compound: O=C(O)[C@@H]1[C@@H](O)[C@H](O)[C@@H](O)c2nc(CCc3ccc(Oc4ccccc4)cc3)cn21
